The conditions of data set [1]: Sprague-Dawley rats, oral administration of 3.0 mg/kg; cited from earlier work.
The conditions of data set [2]: cited from earlier work.
Another data set relates to rats and mice. To be noted: cited from earlier work.
Another data set has as its system rats (Rattus norvegicus). The experiment in a line: Lab test of stop feeding effect (choice feeding test). Format: in vivo. The conditions noted are these: 100 mg/kg of calciferol. The source says:
A lab trial was set up to test the stop-feeding effect induced by calciferol-containing bait in the absence of an anticoagulant rodenticide. Three groups (Group control, Group a, and Group b) of ten rats (Rattus norvegicus) each were subjected to the experiment. The control group and Group a consisted of male rats; Group b consisted of female rats. The groups were kept in three connected pens (20 cm×60 cm) with shelter, saw-dust, water and feed ad libitum under standard laboratory conditions. The rats acclimatized in the test setup for ten days, with standard lab chew ad libitum.
The test-bait formulation was a paste-bait, based on vegetable fat and cereal flour, and contained cholecalciferol at 100 mg/kg. During the choice feeding test, the rats of both treatment groups (a and b) received the cholecalciferol-containing bait and the challenge diet (standard rat chew; Höveler, Germany) ad libitum. The control group received the same bait as the treatment groups but without cholecalciferol, and the challenge diet. Consumption of bait and challenge diet was recorded in all groups daily for 14 days. The daily bait consumption results are depicted in FIG. 1.
FIG. 1 depicts the daily consumption of bait (grams) in the laboratory study of Experiment 1, where three groups of rats (n=10 each) were given a choice between standard lab diet, and bait with or without cholecalciferol (100 mg/kg). […]

The test system of the next data set is rats or mice. To be noted: in rodenticide bait, alone or combined with warfarin; cited from earlier work.

Turning to `O=c1oc2ccccc2c(O)c1[C@@H]1Cc2ccccc2[C@H](c2ccc(-c3ccc(Br)cc3)cc2)C1` (single isomer, unassigned) [cis-isomer of brodifacoum], the liver half-life in data set [1] was 120.82 h. As for `O=c1oc2ccccc2c(O)c1C(CC(O)c1ccc(-c2ccc(Br)cc2)cc1)c1ccccc1` (single isomer, unassigned) [cis-isomer of bromadiolone], the liver half-life in data set [1] is 26.89 h. For `O=c1oc2ccccc2c(O)c1[C@@H]1C[C@@H](c2ccc(OCc3ccc(C(F)(F)F)cc3)cc2)Cc2ccccc21` (single isomer, unassigned) [cis-isomer of flocoumafen], in data set [1], the liver half-life was 76.73 h.

Turning to `O=c1oc2ccccc2c(O)c1C1CC(c2ccc(-c3ccc(Br)cc3)cc2)Cc2ccccc21` (single isomer, unassigned) [trans-isomer of brodifacoum], the liver half-life in data set [1] is 68.73 h. With `O=c1oc2ccccc2c(O)c1C1CC(c2ccc(-c3ccc(Br)cc3)cc2)Cc2ccccc21` (stereo not shown) [brodifacoum, 3-[3-[4-(4-bromophenyl)phenyl]-1,2,3,4-tetrahydronaphthalen-1-yl]-4-hydroxychromen-2-one], in data set [2] (liver), the “half-life in the liver” value is 307.4 days. Further, the plasma half-life in data set [2] is reported as 91.7 days. `C=C1CC[C@H](O)C/C1=C/C=C1\CCC[C@]2(C)[C@@H]([C@H](C)/C=C/[C@H](C)C(C)C)CC[C@@H]12` [calciferol]: the “acute oral LD50” value in the data set on rats and mice was 30 to 100 mg/kg. In addition, the stop feeding effect result in the data set with rats (Rattus norvegicus) was “significant stop feeding effect within two days”. Also, in the data set with rats or mice, the “minimum concentration likely to give good results in the field” value was 0.1%. Take `O=c1oc2ccccc2c(O)c1C1CCCc2ccccc21` (stereo not shown) [coumatetralyl, 4-Hydroxy-3-(1,2,3,4-tetrahydro-1-naphthyl) coumarin]: the plasma half-life in data set [2] is 0.52 days.

The values above are taken from patent US20260191189A1, “CALCIFEROLS TO REDUCE ENVIRONMENTAL IMPACT OF RODENTICIDES” (priority 2021, published 2026).
